Experimental data as given in patent publication US20230391772A1, “METHODS AND COMPOSITIONS FOR TARGETED PROTEIN DEGRADATION” (Ranok Therapeutics (Hangzhou) Co. Ltd., priority 2020, published 2023).

Experiments:
[1] = tested on: MIA PaCa-2 human pancreatic carcinoma; assay: MIA PaCa-2 CCK-8 proliferation assay; assay type: cell-based; conditions: Homo sapiens, MIA PaCa-2, 72 h, MIA PaCa-2 cells
Outline: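 Compounds were tested as a 3-fold series from 20 μM down to 1.02 nM in CCK-8 absorbance assays. The lines used were NCI-H23 and NCI-H358, each with 1 KRAS(G12C) copy, and MIA PaCa-2 with 2 copies. Inhibition was derived relative to DMSO controls, with a no-cell blank subtracted.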

KRAS(G12C) [2] = target: T1, KRAS(G12C) (Homo sapiens, UniProt P01116, G12C); assay: KRAS(G12C) Western blot protein degradation assay in LU65A cells; assay type: cell-based; parameters: LU65A human lung cancer cell line, which expresses KRAS(G12C); host or cells: LU65A; conditions: 6 hr
T1 sequence (P01116 1-188 isoform P01116-2 G12C): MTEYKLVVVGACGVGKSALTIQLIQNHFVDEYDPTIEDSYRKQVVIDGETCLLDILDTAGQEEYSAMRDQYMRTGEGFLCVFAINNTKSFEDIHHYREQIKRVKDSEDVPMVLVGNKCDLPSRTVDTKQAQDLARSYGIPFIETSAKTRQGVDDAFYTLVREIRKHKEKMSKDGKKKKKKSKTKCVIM
Protocol: The following cancer cell lines were employed: BT-474 human breast carcinoma (ATCC, #HTB-20); MIA PaCa-2 human pancreatic carcinoma [2 copies KRAS(G12C)](ATCC, #CRL-1420); NCI-H23 human non-small cell lung cancer [1 copy KRAS(G12C)](ATCC, #CRL-5800); NCI-H358 human non-small cell lung cancer [1 copy KRAS(G12C)](ATCC, #CRL-5807); LU65A human lung carcinoma (Pharmaron, Beijing, China). Cell lines were cultured essentially according to ATCC and Pharmaron recommendations.
KRAS(G12C) Western Blot Protein Degradation Assay
The MIA PaCa-2 human pancreatic carcinoma cell line and LU65A human lung cancer cell line, which expresses KRAS(G12C), were seeded in 6- or 12-well tissue culture plates, and after 1 hr, test compounds were added at various concentrations and incubated at 37° C./5% CO2 for 48 hr (MIA Paca-2) and 6 hr (LU65A) respectively. Cells were then washed with cold PBS, aspirated and cold RIPA buffer containing a protease/phosphatase inhibitor cocktail was added to lyse cells. After centrifugation, the total protein concentrations of cell lysates were determined using the BCA protein assay. Samples were normalized for equivalent protein concentrations, 5×SDS-PAGE loading buffer added and denatured at 100° C. for 10 min. 20 μl of each sample/well was loaded on a SDS-PAGE gel and electrophoresed for 20 min at 80 V, then 120 V for 1.5 hr. Gels were then electroblotted to nitrocellulose membranes using a wet-transfer method at 250 mA for 2.5 hr. Membranes were incubated with blocking buffer for 1 hr and washed 3 times with TBST for 5 min. Membranes were then incubated with anti-KRAS (Sigma-Aldrich, #SAB1404011) and anti-β-Actin monoclonal antibodies (Cell Signaling Technology, #3700) diluted in blocking buffer at 4° C. overnight per the manufacturer's recommendations. After washing 3 times, blots were incubated with appropriately labeled secondary antibodies for 1 hr at room temperature and washed again. Fluorescence imaging and quantitation was performed using a LI-COR Odyssey. Results was analyzed using GraphPad Prism 7 software. Compound degradation of was determined by the following equation and DC50 values (the concentration at which 50% of the maximal degradation of KRAS occurs) calculated using GraphPad Prism 7 software:
% Inhibition=100−(D−B)/(S−B)*100%. • S: Fluorescence intensity of cells with antibody • D: Fluorescence intensity of compound-treated cells with antibody • B: Fluorescence intensity of cells without antibody

KRAS(G12C) [3] = target: T1, KRAS(G12C); assay: KRAS(G12C)/SOS1 homogeneous time-resolved fluorescence (HTRF) assay; parameters: purchased Cisbio 63ADK000CB16PEG; conditions: absence of GTP, 4° C. for 3 hr, read-out: KRAS (G12C) binding
Outline: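 Three-hour incubation at 4 °C of 3-fold compound dilutions (lowest 1.02 nM) with KRAS(G12C), SOS1 and detection reagents, GTP absent. Disruption of the KRAS(G12C)/SOS1 complex detected by time-resolved fluorescence.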

| Compound | EC50 [1] | DC50 (KRAS(G12C) [2]) | IC50 (KRAS(G12C) [3]) |
| --- | --- | --- | --- |
| C=CC(=O)N1CCN(c2nc(OC[C@@H]3C[C@@H](N(C)C(=O)C4CCN(Cc5ccc(-n6c(C(=O)NCC(F)(F)F)nnc6-c6cc(C(C)C)c(O)cc6O)cc5)CC4)CN3C)nc3c2CCN(c2cccc4cccc(Cl)c24)C3)C[C@@H]1CC#N [Compound 235, N-((3R,5S)-5-(((4-((S)-4-acryloyl-3-(cyanomethyl)piperazin-1-yl)-7-(8-chloronaphthalen-1-yl)-5,6,7,8-tetrahydropyrido[3,4-d]pyrimidin-2-yl)oxy)methyl)-1-methylpyrrolidin-3-yl)-1-(4-(3-(2,4-dihydroxy-5-isopropylphenyl)-5-((2,2,2-trifluoroethyl)carbamoyl)-4H-1,2,4-triazol-4-yl)benzyl)-N-methylpiperidine-4-carboxamide] | 0.1 to 1 µM | > 1 µM | 0.1 to 1 µM |
| C=CC(=O)N1CCN(c2nc(OC[C@@H]3C[C@H](N4CCN(Cc5ccc(-n6c(O)nnc6-c6cc(C)c(O)cc6O)cc5)CC4)CN3C)nc3c2CCN(c2cccc4ccccc24)C3)C[C@@H]1CC#N [Compound 270, 2-[(2S)-4-(2-{[(2S,4S)-4-[4-({4-[3-(2,4-dihydroxy-5-methylphenyl)-5-hydroxy-1,2,4-triazol-4-yl]phenyl}methyl)piperazin-1-yl]-1-methylpyrrolidin-2-yl]methoxy}-7-(naphthalen-1-yl)-5H,6H,8H-pyrido[3,4-d]pyrimidin-4-yl)-1-(prop-2-enoyl)piperazin-2-yl]acetonitrile] | > 1 µM | 0.1 to 1 µM |  |
| C=CC(=O)N1CCN(c2nc(OC[C@@H]3C[C@H](N4CCN(Cc5ccc(-n6c(C(=O)NCC)nnc6-c6cc(C(C)C)c(O)cc6O)cc5)CC4)CN3C)nc3c2CCN(c2cccc4ccccc24)C3)C[C@@H]1CC#N [Compound 271, 4-[4-({4-[(3S,5S)-5-[({4-[(3S)-3-(cyanomethyl)-4-(prop-2-enoyl)piperazin-1-yl]-7-(naphthalen-1-yl)-5H,6H,8H-pyrido[3,4-d]pyrimidin-2-yl}oxy)methyl]-1-methylpyrrolidin-3-yl]piperazin-1-yl}methyl)phenyl]-5-(2,4-dihydroxy-5-isopropylphenyl)-N-ethyl-1,2,4-triazole-3-carboxamide] | 0.1 to 1 µM | 0.1 to 1 µM |  |
| C=CC(=O)N1CCN(c2nc(OC[C@@H]3CC[C@H](CN4CCN(Cc5ccc(-n6c(O)nnc6-c6cc(C(C)C)c(O)cc6O)cc5)CC4)N3C)nc3c2CCN(c2cccc4ccccc24)C3)C[C@@H]1CC#N [Compound 272, 2-[(2S)-4-(2-{[(2S,5R)-5-{[4-({4-[3-(2,4-dihydroxy-5-isopropylphenyl)-5-hydroxy-1,2,4-triazol-4-yl]phenyl}methyl)piperazin-1-yl]methyl}-1-methylpyrrolidin-2-yl]methoxy}-7-(naphthalen-1-yl)-5H,6H,8H-pyrido[3,4-d]pyrimidin-4-yl)-1-(prop-2-enoyl)piperazin-2-yl]acetonitrile] | < 0.1 µM | < 0.1 µM |  |
| C=CC(=O)N1CCN(c2nc(OC[C@@H]3CC[C@H](CN4CCN(Cc5ccc(-n6c(O)nnc6-c6cc(C(C)C)c(O)cc6O)cc5)CC4)N3C)nc3c2CCN(c2cccc4cccc(C)c24)C3)C[C@@H]1CC#N [Compound 273, 2-[(2S)-4-(2-{[(2S,5R)-5-{[4-({4-[3-(2,4-dihydroxy-5-isopropylphenyl)-5-hydroxy-1,2,4-triazol-4-yl]phenyl}methyl)piperazin-1-yl]methyl}-1-methylpyrrolidin-2-yl]methoxy}-7-(8-methylnaphthalen-1-yl)-5H,6H,8H-pyrido[3,4-d]pyrimidin-4-yl)-1-(prop-2-enoyl)piperazin-2-yl]acetonitrile] | 0.1 to 1 µM | 0.1 to 1 µM |  |
